{"source": "patent US9476099B2", "about": "(TRUSTEES OF DARTMOUTH COLLEGE, priority 2012, dated 2016)", "tested_on": "NT2/D1 and NT2/D1-R1 cells expressing DNMT3B-targeting shRNAs", "experiment": "Decitabine dose-response in DNMT3B shRNA knockdown EC cells", "format": "cell-based, human", "protocol": "Data are the average of biological triplicates and are representative of at least two experiments. Error bars are S.D.\nViable cell growth and survival were measured. Data was normalized to no drug treatment. Error bars (within symbols) are standard deviation. * p=<0.05 compared to untreated controls.\nFive distinct lentiviral shRNAs for DNMT3B (sh84, sh85, sh86, sh87, and sh88) were used to knock down DNMT3B expression. Six potential alternatively spliced isoforms of DNMT3B exist; the most biologically relevant isoforms are variants 1, 2, 3 and 6 (Jones, P. A. and S. B. Baylin. 2007. Cell 128:683-692). […] Western blot analysis of NT2/D1 and NT2/D1-R1 cells was also performed with cells treated with DNMT3B shRNA ([…]) and employing DNMT3B antibody, H-230. The results confirmed the reduced expression of DNMT3B when the shRNA were employed. None of the DNMT3B-specific shRNAs affected levels of DNMT1 or DNMT3A (FIG. 2). […] However, knockdown of DNMT3B by itself had no apparent effect on the growth of NT2/D1 or NT2/D1-R1 cells. […] It had been previously reported that cisplatin causes a global p53-dominant transcriptional response in EC cells (Kerley-Hamilton et al. 2005. Oncogene 24:6090-6100). […]\nCells were cultured in DMEM media (Gibco) with 10% FBS. […] Cell proliferation and survival were assessed with the CELL-TITRE GLO assay (Promega). […]"}
{"smiles": "Nc1ncn([C@H]2C[C@H](O)[C@@H](CO)O2)c(=O)n1", "note": "[decitabine, 5-aza-deoxycytidine]", "values": [{"measurement": "effect of DNMT3B knockdown on response to low-dose 3 day decitabine treatment compared to sh-control cells", "setting": "NT2/D1-R1 shDNMT3B, FIG. 11", "value": "extensive resistance"}, {"measurement": "decitabine sensitivity of cells expressing DNMT3B-targeting shRNAs compared to control cells", "setting": "NT2/D1 sh84, NT2/D1-R1 sh84, sh85, sh86, 3 day treatment, FIG. 3", "value": "dramatic reduction of decitabine sensitivity"}]}
